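Interpolation was linear, between the two tested concentrations surrounding the appropriate level; five concentrations were tested over 48 hours in 96-well plates. TGI is the concentration that stops growth completely.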
Tests used:
Assay in all cases: NCI-60 cell line screen, 48 h
[1] = tested on: CAKI-1 renal
[2] = tested on: MDA-MB-231 breast
[3] = tested on: HOP-62 NSCLC
[4] = tested on: SN12C renal
[5] = tested on: OVCAR-4 ovarian
[6] = tested on: NCI-H23 lung
[7] = tested on: SF-295 CNS
[8] = tested on: MCF7 breast
[9] = tested on: HS 578T breast
[10] = tested on: SR leukemia
[11] = tested on: NCI/ADR-RES ovarian
[12] = tested on: DU-145 prostate
[13] = tested on: SK-MEL-2 melanoma
[14] = tested on: BT-549 breast
[15] = tested on: M14 melanoma
[16] = tested on: MDA-MB-435
[17] = tested on: RPMI-8226 leukemia
[18] = tested on: RXF 393 renal
[19] = tested on: HCC-2998 colon
[20] = tested on: OVCAR-5 ovarian
[21] = tested on: SK-MEL-28 melanoma
[22] = tested on: SK-OV-3 ovarian
[23] = tested on: HCT-15 colon
[24] = tested on: SNB-19 CNS
[25] = tested on: K-562 leukemia
[26] = tested on: U251 CNS
[27] = tested on: MALME-3M melanoma
[28] = tested on: MOLT-4 leukemia
[29] = tested on: IGROV1 ovarian
[30] = tested on: A498 renal
[31] = tested on: HL-60(TB) leukemia
[32] = tested on: PC-3 prostate
[33] = tested on: SK-MEL-5 melanoma
[34] = tested on: COLO 205 colon
[35] = tested on: NCI-H522 lung
[36] = tested on: HCT-116 colon
[37] = tested on: HOP-92 NSCLC
[38] = tested on: NCI-H460 lung
[39] = tested on: T-47D breast
[40] = tested on: OVCAR-3 ovarian
[41] = tested on: CCRF-CEM leukemia
[42] = tested on: KM12 colon
[43] = tested on: UO-31 renal
[44] = tested on: SNB-75 CNS
[45] = tested on: MDA-N
[46] = tested on: NCI-H226 lung
[47] = tested on: UACC-62 melanoma
[48] = tested on: OVCAR-8 ovarian
[49] = tested on: HT29 colon
[50] = tested on: UACC-257 melanoma
[51] = tested on: SW-620 colon
[52] = tested on: SF-539 CNS
[53] = tested on: ACHN renal
[54] = tested on: TK-10 renal
[55] = tested on: SF-268 CNS
[56] = tested on: A549 NSCLC
[57] = tested on: EKVX NSCLC
[58] = tested on: LOX IMVI melanoma
[59] = tested on: 786-0 renal

For `CC(=O)O[C@H]1CC[C@H]2[C@@H]3CC[C@H]4Nc5c(cnn5S(C)(=O)=O)C[C@]4(C)[C@H]3CC[C@]12C`, the TGI [1] was over 100 µM, the TGI [2] was over 100 µM and the TGI [3] was 77.4 µM. The TGI [4] was over 100 µM, the TGI [5] was over 100 µM and the TGI [6] was over 100 µM. For the same compound, the TGI [7] was over 100 µM, the TGI [8] was 82.4 µM and the TGI [9] was over 100 µM. For the same compound, the TGI [10] was over 100 µM, the TGI [11] was over 100 µM and the TGI [12] was over 100 µM. The TGI [13] was over 100 µM, the TGI [14] was 80.9 µM and the TGI [15] was over 100 µM. For the same compound, the TGI [16] was over 100 µM, the TGI [17] was over 100 µM and the TGI [18] was over 100 µM. For the same compound, the TGI [19] was over 100 µM, the TGI [20] was over 100 µM and the TGI [21] was over 100 µM. The TGI [22] was over 100 µM, the TGI [23] was over 100 µM and the TGI [24] was over 100 µM. The TGI [25] was over 100 µM, the TGI [26] was over 100 µM and the TGI [27] was over 100 µM. The TGI [28] was over 100 µM, the TGI [29] was over 100 µM and the TGI [30] was over 100 µM. The TGI [31] was over 100 µM, the TGI [32] was over 100 µM and the TGI [33] was over 100 µM. The TGI [34] was over 100 µM, the TGI [35] was over 100 µM and the TGI [36] was over 100 µM. For the same compound, the TGI [37] was over 100 µM, the TGI [38] was over 100 µM and the TGI [39] was over 100 µM. It also gave a TGI [40] of 78.1 µM, a TGI [41] of over 100 µM and a TGI [42] of over 100 µM. It also gave a TGI [43] of over 100 µM, a TGI [44] of over 100 µM and a TGI [45] of over 100 µM. The TGI [46] was over 100 µM, the TGI [47] was over 100 µM and the TGI [48] was over 100 µM. For the same compound, the TGI [49] was over 100 µM.

`COc1ccc(NCc2c(O)ccc3ccccc23)cc1` showed a TGI [1] of 67.1 µM, a TGI [2] of over 100 µM and a TGI [3] of over 100 µM. It also gave a TGI [50] of 44.5 µM, a TGI [4] of over 100 µM and a TGI [5] of over 100 µM. The TGI [6] was over 100 µM, the TGI [7] was over 100 µM and the TGI [8] was over 100 µM. The TGI [9] was over 100 µM, the TGI [10] was 39.5 µM and the TGI [11] was over 100 µM. For the same compound, the TGI [12] was over 100 µM, the TGI [13] was over 100 µM and the TGI [14] was 43.5 µM. It also gave a TGI [15] of 47.6 µM, a TGI [51] of 49.6 µM and a TGI [52] of 25.9 µM. The TGI [16] was over 100 µM, the TGI [17] was 63.6 µM and the TGI [18] was 35 µM. For the same compound, the TGI [20] was 49.3 µM, the TGI [21] was 78.3 µM and the TGI [22] was over 100 µM. For the same compound, the TGI [23] was over 100 µM, the TGI [53] was 31.2 µM and the TGI [24] was over 100 µM. For the same compound, the TGI [25] was 38.3 µM, the TGI [26] was over 100 µM and the TGI [27] was 38.8 µM. The TGI [29] was over 100 µM, the TGI [30] was over 100 µM and the TGI [54] was 38.6 µM. The TGI [55] was 40.7 µM, the TGI [32] was 49.9 µM and the TGI [33] was 49.1 µM. It also gave a TGI [34] of 94.3 µM, a TGI [56] of over 100 µM and a TGI [57] of over 100 µM. The TGI [35] was 28 µM, the TGI [36] was over 100 µM and the TGI [37] was 29.6 µM. For the same compound, the TGI [38] was over 100 µM, the TGI [39] was 55.1 µM and the TGI [58] was 29.4 µM. The TGI [40] was over 100 µM, the TGI [59] was 32 µM and the TGI [42] was over 100 µM. For the same compound, the TGI [43] was over 100 µM, the TGI [44] was over 100 µM and the TGI [45] was over 100 µM. It also gave a TGI [47] of over 100 µM, a TGI [48] of 29.2 µM and a TGI [49] of over 100 µM.

With `C=C(C)C1CCC2(CO)C(O)CC3(C)C(CCC4C5(C)CCC(O)C(C)(C)C5CCC43C)C12` (stereo unspecified) the TGI [1] was over 100 µM, the TGI [2] was 57.2 µM and the TGI [3] was 27 µM. The TGI [50] was 24.9 µM, the TGI [4] was over 100 µM and the TGI [7] was 10.3 µM. It also gave a TGI [8] of 43.6 µM, a TGI [9] of 90.7 µM and a TGI [10] of over 100 µM. For the same compound, the TGI [11] was 81.5 µM, the TGI [12] was over 100 µM and the TGI [13] was 32 µM. The TGI [14] was over 100 µM, the TGI [15] was over 100 µM and the TGI [51] was over 100 µM. The TGI [52] was 30 µM, the TGI [16] was 38.3 µM and the TGI [18] was 9.65 µM. For the same compound, the TGI [20] was over 100 µM, the TGI [21] was 32.5 µM and the TGI [23] was 88 µM. It also gave a TGI [53] of 15.4 µM, a TGI [24] of 84.1 µM and a TGI [25] of 33.3 µM. It also gave a TGI [26] of 9.96 µM, a TGI [27] of 32 µM and a TGI [28] of over 100 µM. It also gave a TGI [29] of 30 µM, a TGI [30] of 31.9 µM and a TGI [54] of 30.2 µM. For the same compound, the TGI [55] was over 100 µM, the TGI [31] was over 100 µM and the TGI [32] was 60.3 µM. It also gave a TGI [33] of 21.3 µM, a TGI [56] of 32.6 µM and a TGI [57] of 32.6 µM. The TGI [35] was 42.4 µM, the TGI [36] was 73.7 µM and the TGI [37] was 25.2 µM. The TGI [38] was 64.3 µM, the TGI [39] was 11.3 µM and the TGI [58] was 24.2 µM. For the same compound, the TGI [40] was 29.2 µM, the TGI [59] was over 100 µM and the TGI [41] was over 100 µM. It also gave a TGI [42] of over 100 µM, a TGI [43] of 26.7 µM and a TGI [44] of 9.5 µM. The TGI [45] was over 100 µM, the TGI [46] was over 100 µM and the TGI [48] was 20.7 µM. It also gave a TGI [49] of 54.7 µM.

`COc1cc(C(c2cc(OC)c(OC)c(OC)c2)N2C(=O)CCC2C(=O)O)cc(OC)c1OC` (stereo unspecified) showed a TGI [1] of over 100 µM, a TGI [2] of over 100 µM and a TGI [3] of over 100 µM. It also gave a TGI [50] of over 100 µM, a TGI [4] of over 100 µM and a TGI [5] of over 100 µM. It also gave a TGI [6] of over 100 µM, a TGI [7] of over 100 µM and a TGI [8] of over 100 µM. For the same compound, the TGI [9] was over 100 µM, the TGI [10] was over 100 µM and the TGI [11] was over 100 µM. The TGI [12] was over 100 µM, the TGI [13] was over 100 µM and the TGI [14] was over 100 µM. The TGI [15] was over 100 µM, the TGI [51] was over 100 µM and the TGI [52] was over 100 µM. It also gave a TGI [16] of over 100 µM, a TGI [17] of over 100 µM and a TGI [18] of over 100 µM. The TGI [20] was over 100 µM, the TGI [21] was over 100 µM and the TGI [22] was over 100 µM. For the same compound, the TGI [23] was over 100 µM, the TGI [53] was over 100 µM and the TGI [24] was over 100 µM. For the same compound, the TGI [25] was over 100 µM, the TGI [26] was over 100 µM and the TGI [27] was over 100 µM. The TGI [28] was over 100 µM, the TGI [29] was over 100 µM and the TGI [30] was over 100 µM. For the same compound, the TGI [55] was over 100 µM, the TGI [31] was over 100 µM and the TGI [32] was over 100 µM. It also gave a TGI [33] of over 100 µM, a TGI [34] of over 100 µM and a TGI [56] of over 100 µM. It also gave a TGI [57] of over 100 µM, a TGI [35] of over 100 µM and a TGI [36] of over 100 µM. It also gave a TGI [37] of over 100 µM, a TGI [38] of over 100 µM and a TGI [39] of over 100 µM. For the same compound, the TGI [40] was over 100 µM, the TGI [59] was over 100 µM and the TGI [41] was over 100 µM. The TGI [42] was over 100 µM, the TGI [43] was over 100 µM and the TGI [44] was over 100 µM. It also gave a TGI [45] of over 100 µM, a TGI [46] of over 100 µM and a TGI [47] of over 100 µM. The TGI [48] was over 100 µM and the TGI [49] was over 100 µM.

Source: PubChem BioAssay (NCI)
